Read-outs that look alike come from different tables or passages of the source.
Columns and labels:
Type in all cases: cell-based, Escherichia coli
EKO-35-Pore = test: MIC susceptibility profiling, porinated strain; details: for Fold changes of MICs: EKO-35-Pore compared to EKO-35-Pore (reference)
How it was run: (§1)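 E. coli strains carrying a genomically integrated constitutive fhuA ΔC/Δ4L pore were grown 18 h in LB at 37 °C, then diluted 1/2000 in MHB II from OD600 ~1.0. Compounds were tested in duplicate, 2-fold serial titration, for 18 h at 37 °C with shaking. MIC came from OD600 with the pre-incubation background subtracted.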

ΔtolC-Pore = test: microbe, parasite or virus in culture; details: for Minimum inhibitory concentration (MIC), Pore ΔtolC: Table 10, with pore
How it was run: as §1

wild-type (WT) K-12-Pore = test: microbe, parasite or virus in culture; details: technical duplicate; for MIC: Escherichia coli
How it was run: as §1

EKO-35 araC::emrAB = test: MIC susceptibility profiling, efflux platform; details: for Fold change of MICs: EKO-35 araC::emrAB compared to EKO-35
How it was run: (§2)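 MHB II broth microdilution; inoculum from 18 h LB culture, PBS-adjusted to OD600 ~1.0, then 1/2000 dilution. Compounds 2-fold titrated, duplicates, DMSO solvent control. 18 h, 37 °C, 900 rpm; background-corrected OD600 end point.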

EKO-35 araC::acrEF = test: MIC susceptibility profiling, efflux platform; details: for Fold change of MICs: EKO-35 araC::acrEF compared to EKO-35
How it was run: as §2

EKO-35 araC::macAB = test: MIC susceptibility profiling, efflux platform; details: for Fold change of MICs: EKO-35 araC::macAB compared to EKO-35
How it was run: as §2

[1] = system: EKO-35 araC::acrBD408A Pore; test: MIC susceptibility profiling, porinated efflux platform; details: for Fold changes of MICs: EKO-35 araC::acrBD408A Pore compared to EKO-35-Pore
How it was run: as §1

EKO-35 araC::mdtBC Pore = test: as above; details: for Fold changes of MICs: EKO-35 araC::mdtBC Pore compared to EKO-35-Pore
How it was run: as §1

EKO-35 araC::acrB Pore = test: as above; details: for Fold changes of MICs: EKO-35 araC::acr-B Pore compared to EKO-35-Pore
How it was run: as §1

EKO-35 araC::mexCD Pore = test: as above; details: for Fold changes of MICs: EKO-35 araC::mexCD Pore compared to EKO-35-Pore
How it was run: as §1

EKO-35 araC::mdtEF Pore = test: as above; details: for Fold changes of MICs: EKO-35 araC::mdtEF Pore compared to EKO-35-Pore
How it was run: as §1

EKO-35 araC::emrAB Pore = test: as above; details: for Fold changes of MICs: EKO-35 araC::emrAB Pore compared to EKO-35-Pore
How it was run: as §1

EKO-35 araC::macAB Pore = test: as above; details: for Fold changes of MICs: EKO-35 araC::macAB Pore compared to EKO-35-Pore
How it was run: as §1

EKO-35 araC::emrKY Pore = test: as above; details: for Fold changes of MICs: EKO-35 araC::emrKY Pore compared to EKO-35-Pore
How it was run: as §1

EKO-35 araC::acrD Pore = test: as above; details: for Fold changes of MICs: EKO-35 araC::acrD Pore compared to EKO-35-Pore
How it was run: as §1

EKO-35 araC::acrEF Pore = test: as above; details: for Fold changes of MICs: EKO-35 araC::acrEF Pore compared to EKO-35-Pore
How it was run: as §1

E. coli ΔtolC = test: microbe, parasite or virus in culture; details: for Minimum inhibitory concentration (MIC), ΔtolC: Table 10, without pore
How it was run: as §2

[2] = system: wild-type E. coli K-12 str. BW25113; test: microbe, parasite or virus in culture; details: technical duplicate; for MIC: Escherichia coli, BW25113
How it was run: as §2

E. coli EKO-35 = test: microbe, parasite or virus in culture; details: for Fold change of MICs: EKO-35 compared to EKO-35 (reference); for MIC: Escherichia coli, EKO35
How it was run: as §2

[3] = Table 14A, porinated, technical duplicate
[4] = Table 13B, non-porinated, technical duplicate
[5] = Table 13A, non-porinated, technical duplicate

Nc1ccc(S(=O)(=O)Nc2nccs2)cc1 [Sulfathiazole]
Fold changes of MICs (EKO-35-Pore): 1 fold
MIC (ΔtolC-Pore; Escherichia coli, 18 h, read-out: Minimum inhibitory concentration, ΔtolC-Pore): 2.5 µg/mL
Minimum inhibitory concentration (MIC), Pore ΔtolC (ΔtolC-Pore; technical duplicate): 2.5 µg/mL
MIC (wild-type (WT) K-12-Pore; Table 10, with pore, read-out: Minimum inhibitory concentration (MIC), Pore K-12): 5 µg/mL
MIC (wild-type (WT) K-12-Pore; Table 14A, porinated, read-out: Minimum inhibitory concentration, K-12 (WT)-Pore): 5 µg/mL
Fold change of MICs (EKO-35 araC::emrAB): 1 fold
MIC (EKO-35 araC::emrAB; Escherichia coli, Table 13B, non-porinated, technical duplicate, read-out: Minimum Inhibitory Concentration, EKO-35 araC::emrAB): 10 µg/mL
Fold change of MICs (EKO-35 araC::acrEF): 1 fold
MIC (EKO-35 araC::acrEF; Escherichia coli, Table 13A, non-porinated, technical duplicate, read-out: Minimum Inhibitory Concentration, EKO-35 araC::acrEF): 10 µg/mL
Fold change of MICs (EKO-35 araC::macAB): 1 fold
Fold changes of MICs [1]: 0 fold
MIC ([1]; Escherichia coli, EKO-35 araC::acrBD408A Pore, technical duplicate, read-out: Minimum inhibitory concentration): 1.25 µg/mL
Fold changes of MICs (EKO-35 araC::mdtBC Pore): 1 fold
Fold changes of MICs (EKO-35 araC::acrB Pore): 2 fold
MIC (EKO-35 araC::acrB Pore; Escherichia coli, Table 14A, porinated, technical duplicate, read-out: Minimum inhibitory concentration, EKO-35 araC::acrB Pore): 10 µg/mL
Fold changes of MICs (EKO-35 araC::mexCD Pore): 1 fold
Fold changes of MICs (EKO-35 araC::mdtEF Pore): 2 fold
MIC (EKO-35 araC::mdtEF Pore; Escherichia coli, Table 14A, porinated, technical duplicate, read-out: Minimum inhibitory concentration, EKO-35 araC::mdtEF Pore): 10 µg/mL
Fold changes of MICs (EKO-35 araC::emrAB Pore): 2 fold
MIC (EKO-35 araC::emrAB Pore; Escherichia coli, EKO-35 araC::emrAB Pore, technical duplicate, read-out: Minimum inhibitory concentration): 10 µg/mL
Fold changes of MICs (EKO-35 araC::macAB Pore): 2 fold
MIC (EKO-35 araC::macAB Pore; Escherichia coli, EKO-35 araC::macAB Pore, technical duplicate, read-out: Minimum inhibitory concentration): 10 µg/mL
Fold changes of MICs (EKO-35 araC::emrKY Pore): 1 fold
Fold changes of MICs (EKO-35 araC::acrD Pore): 1 fold
Fold changes of MICs (EKO-35 araC::acrEF Pore): 1 fold
MIC (E. coli ΔtolC; Escherichia coli, 18 h, read-out: Minimum Inhibitory Concentration, ΔtolC): 5 µg/mL
Minimum inhibitory concentration (MIC), ΔtolC (E. coli ΔtolC; technical duplicate): 5 µg/mL
MIC ([2]; Table 10, without pore, read-out: Minimum inhibitory concentration (MIC), K-12): 5 µg/mL
MIC ([2]; Table 13A, non-porinated, read-out: Minimum Inhibitory Concentration, K-12): 5 µg/mL
Fold change of MICs (E. coli EKO-35): 1 fold
MIC (E. coli EKO-35; Table 10, without pore, technical duplicate, read-out: Minimum inhibitory concentration (MIC), EKO-35): 10 µg/mL
MIC (E. coli EKO-35; Table 13A, non-porinated, technical duplicate, read-out: Minimum Inhibitory Concentration, EKO-35): 10 µg/mL

C[n+]1c2cc(N)ccc2cc2ccc(N)cc21.[Cl-] [acriflavine]
Fold changes of MICs (EKO-35-Pore): 1 fold
Minimum inhibitory concentration (MIC), Pore EKO-35 (EKO-35-Pore; Table 10, with pore, technical duplicate): 0.098 µg/mL
Minimum inhibitory concentration, EKO-35-Pore (EKO-35-Pore; [3]): 0.098 µg/mL
Minimum inhibitory concentration (MIC), Pore ΔtolC (ΔtolC-Pore; technical duplicate): 3.125 µg/mL
Minimum inhibitory concentration, ΔtolC-Pore (ΔtolC-Pore; [3]): 3.125 µg/mL
Minimum inhibitory concentration (MIC), Pore K-12 (wild-type (WT) K-12-Pore; Table 10, with pore): 50 µg/mL
Minimum inhibitory concentration, K-12 (WT)-Pore (wild-type (WT) K-12-Pore; Table 14A, porinated): 50 µg/mL
Fold change of MICs (EKO-35 araC::emrAB): 1 fold
Minimum Inhibitory Concentration, EKO-35 araC::emrAB (EKO-35 araC::emrAB; [4]): 0.098 µg/mL
Fold change of MICs (EKO-35 araC::acrEF): 8 fold
Minimum Inhibitory Concentration, EKO-35 araC::acrEF (EKO-35 araC::acrEF; [5]): 0.781 µg/mL
Fold change of MICs (EKO-35 araC::macAB): 1 fold
Minimum Inhibitory Concentration, EKO-35 araC::macAB (EKO-35 araC::macAB; [4]): 0.098 µg/mL
Fold changes of MICs [1]: 1 fold
Minimum inhibitory concentration ([1]; EKO-35 araC::acrBD408A Pore, technical duplicate): 0.098 µg/mL
Fold changes of MICs (EKO-35 araC::mdtBC Pore): 1 fold
Minimum inhibitory concentration (EKO-35 araC::mdtBC Pore; EKO-35 araC::mdtBC Pore, technical duplicate): 0.098 µg/mL
Fold changes of MICs (EKO-35 araC::acrB Pore): 16 fold
Minimum inhibitory concentration, EKO-35 araC::acrB Pore (EKO-35 araC::acrB Pore; [3]): 1.563 µg/mL
Fold changes of MICs (EKO-35 araC::mexCD Pore): 4 fold
Minimum inhibitory concentration (EKO-35 araC::mexCD Pore; EKO-35 araC::mexCD Pore, technical duplicate): 0.391 µg/mL
Fold changes of MICs (EKO-35 araC::mdtEF Pore): 2 fold
Minimum inhibitory concentration, EKO-35 araC::mdtEF Pore (EKO-35 araC::mdtEF Pore; [3]): 0.195 µg/mL
Fold changes of MICs (EKO-35 araC::emrAB Pore): 2 fold
Minimum inhibitory concentration (EKO-35 araC::emrAB Pore; EKO-35 araC::emrAB Pore, technical duplicate): 0.195 µg/mL
Fold changes of MICs (EKO-35 araC::macAB Pore): 2 fold
Minimum inhibitory concentration (EKO-35 araC::macAB Pore; EKO-35 araC::macAB Pore, technical duplicate): 0.195 µg/mL
Fold changes of MICs (EKO-35 araC::emrKY Pore): 1 fold
Minimum inhibitory concentration (EKO-35 araC::emrKY Pore; EKO-35 araC::emrKY Pore, technical duplicate): 0.098 µg/mL
Fold changes of MICs (EKO-35 araC::acrD Pore): 2 fold
Minimum inhibitory concentration, EKO-35 araC::acrD Pore (EKO-35 araC::acrD Pore; [3]): 0.195 µg/mL
Fold changes of MICs (EKO-35 araC::acrEF Pore): 8 fold
Minimum inhibitory concentration, EKO-35 araC::acrEF Pore (EKO-35 araC::acrEF Pore; [3]): 0.781 µg/mL
Minimum inhibitory concentration (MIC), ΔtolC (E. coli ΔtolC; technical duplicate): 3.125 µg/mL
Minimum Inhibitory Concentration, ΔtolC (E. coli ΔtolC; [5]): 3.125 µg/mL
Minimum inhibitory concentration (MIC), K-12 ([2]; Table 10, without pore): 50 µg/mL
Minimum Inhibitory Concentration, K-12 ([2]; Table 13A, non-porinated): 50 µg/mL
susceptibility of EKO-35 compared with the ΔtolC mutant (E. coli EKO-35): more susceptible
Fold change of MICs (E. coli EKO-35): 1 fold
Minimum inhibitory concentration (MIC), EKO-35 (E. coli EKO-35; Table 10, without pore, technical duplicate): 0.098 µg/mL
Minimum Inhibitory Concentration, EKO-35 (E. coli EKO-35; [5]): 0.098 µg/mL
